According to US6974885B2, “Method for isolating pharmaceutically exploitable etidronate disodium” (Schering AG, priority 2000, dated 2005):
Where a name gives a salt, the structure may show the parent alone.

Columns and labels:
[1] = Particle size analysis (RETSCH screen analysis); format: physicochemical; conditions: for particle size distribution, fraction 0.1-0.2 mm / particle size distribution, fraction 0.1 mm / particle size distribution, fraction 0.2-0.5 mm / particle size distribution, fraction 0.5-0.8 mm / particle size distribution, fraction 0.8-1.0 mm / particle size distribution, fraction 1.0 mm: end product; for particle size distribution, fraction 0.1-0.2 mm: screen fraction 0.1-0.2 mm; for particle size distribution, fraction 0.1 mm: screen fraction 0.1 mm; for particle size distribution, fraction 0.2-0.5 mm: screen fraction 0.2-0.5 mm; for particle size distribution, fraction 0.5-0.8 mm: screen fraction 0.5-0.8 mm; for particle size distribution, fraction 0.8-1.0 mm: screen fraction 0.8-1.0 mm; for particle size distribution, fraction 1.0 mm: screen fraction 1.0 mm
Description: A RETSCH screen analysis system was used.

[2] = Bulk density determination (graduated cylinder, unshaken); format: physicochemical; conditions: end product
Experimental: Bulk Density Determination Bulk density was determined by means of a graduated cylinder (unshaken).

[3] = cited from earlier work

SMILES | particle size distribution, fraction 0.1-0.2 mm [1] [%] | particle size distribution, fraction 0.1 mm [1] [%] | particle size distribution, fraction 0.2-0.5 mm [1] [%] | particle size distribution, fraction 0.5-0.8 mm [1] [%] | particle size distribution, fraction 0.8-1.0 mm [1] [%] | particle size distribution, fraction 1.0 mm [1] [%] | bulk density [2] [g/mL] | particles <0.1 mm ([1]; maximum share of all particles) [wt. %] | particles >1 mm ([1]; maximum share of all particles) [wt. %] | solubility in organic solvents ([3]; all organic solvents) | water solubility ([3]; water)
CC(O)(P(=O)(O)O)P(=O)(O)O [Example 1, etidronate disodium] | 23.8 | 0.07 | 27.3 | 46.2 | 2.16 | 0.47 | 0.48 |  |  |  | 
CC(O)(P(=O)(O)O)P(=O)(O)O [Example 2, etidronate disodium] | 0.07 | 0.0 | 19.7 | 54.9 | 15.6 | 9.71 | 0.51 |  |  |  | 
CC(O)(P(=O)(O)O)P(=O)(O)O [etidronate disodium, disodium salt of hydroxyethane-1,1-diphosphonicacid] |  |  |  |  |  |  | 0.4 to 0.6 | ≤ 5 | ≤ 10 | nearly insoluble | high water solubility
